Where two headings read alike, the source gives them in different places. Each block holds one compound with its values, some of them ahead of it.
Assays:
[1] = Test method for antioxidative activity (peroxide formation from linolic acid, iron rhodanide method); conditions: compound added at 2 μM/g (linolic acid); one week after addition; FIG. 4
Experimental: 5 ml of a base solution (ethanol containing 4% of linolic acid) was mixed with 4 ml of a phosphate buffer solution (pH=7.0) and 1 ml of a sample solution in a tightly stoppered test tube. The test tube was kept in a 50° C. thermostat under light shielding. Also kept under the same conditions were a test tube (control) containing ethanol in place of linolic acid and a test tube (blank) containing the sample solvent in place of the sample.
During the storage period, the reaction mixture was sampled with the lapse of time to quantitatively determine the amount of peroxide formed by the isothiocyanate method (the iron rhodanide method).

[2] = target: T1, ACE (angiotensin I converting enzyme) (Homo sapiens, UniProt P12821); assay: Test for ACE-inhibiting activity (commercial ACE, Bz-Gly-His-Leu substrate, fluorescence); assay type: biochemical
T1 construct: purchased
Experimental: The test for ACE-inhibiting activity was conducted by an ordinary method.
The ACE-inhibiting activity of the sample solution was expressed by the following formula: […]
where S: the fluorescent intensity of test solution,
C: the fluorescent intensity of comparative solution wherein water was used in place of the sample,
SB : the fluorescent intensity of blank for S (the blank contained water in place of the enzyme), and
CB : the fluorescent intensity of blank for C (the blank contained water in place of the enzyme).

[3] = test system: Salmonella typhimurium TA 98 or TA 100; assay: Antimutagenic activity, modified Ames method with S 9-mix; assay type: cell-based; conditions: amount per plate
Experimental: In this Example, antimutagenic activity was measured by modifying the ames method (Mutation Research, vol. 31, p. 347, 1975).
An antimutagenic compound [benzo(a)pyrene or Trp-P-2] solution was mixed with a phosphate buffer solution, a sample solution, S 9-mix and a salmonella (a solution obtained by culturing Salmonella typhimurium TA 98 or TA 100 overnight). The mixture was cultured at 37° C. for 2 days. The number of the resulting colonies was counted. The amount of each polyphenol used was shown based on a scale expressed in geometric progression, between 1 and 300 μg/plate. Antimutagenic activity was calculated using the following formula: […]
antimutagenic activity (%)={(C-B)-(S-B)}).div.(C-B)×100 wherein S: number of colonies of test solution
C: number of colonies of control wherein water is used in place of the sample, and B: number of colonies of blank wherein water is used in place of the sample and the mutagenic com pound.

[4] = target: T2, GTase (glucosyltransferase) of S. sobrinus (Streptococcus downei, UniProt P27470); assay: Test for GTase-inhibiting activity (insoluble glucan formation, turbidity at 550 nm); assay type: biochemical, Streptococcus sobrinus ATCC 33478; conditions: for GTase-inhibiting activity (in words): FIG. 17 and 18
T2 construct: Centrifugation was conducted to remove bacterial cells and obtain a supernatant; made in house; host or cells: S. sobrinus culture supernatant (native secreted enzyme, ammonium sulfate and hydroxyapatite purified)
Experimental: S. sobrinus was cultured in a TTY medium [Agric. Biol. Chem., 54 (11), pp. 2925-2929, 1990] at 37° C. for 18 hours. Centrifugation was conducted to remove bacterial cells and obtain a supernatant. To the supernatant was added ammonium sulfate to 50% saturation. Then, centrifugation was conducted to recover the resulting precipitate. The precipitate was redissolved in a 0.05 M phosphate buffer solution (pH 6.5). The resulting solution was dialyzed with the same buffer solution. The GTase in the dialyzate was purified and removed by hydroxyapatite chromatography. The GTase (capable of forming insoluble glucan) was eluted with an about 0.4 M phosphate buffer solution. The GTase-containing elute was used for the following test.
A purified GTase solution and a sample solution were added to 1 ml of a substrate solution [a 0.1 M phosphate buffer solution (pH 6.5) containing 2% of sucrose, 0.1% of sodium azide and 40 μM of dextran T10]. Water was added for dilution to make the total volume 2 ml. The resulting solution was subjected to a reaction at 37° C. for 18 hours. The amount of insoluble glucan formed by the reaction was measured as a turbidity expressed by an absorbance at 550 nm, and the formation ratio (%) of insoluble glucan was calculated using the following formula: […]
formation ratio (%) of insoluble glucan=(SS-SB).div.(CS-CB)×100 wherein SS: absorbance of sample, SB: absorbance of blank for sample (the blank contained no enzyme), CS: absorbance of control (containing no sample), and CB: absorbance of blank for control (the blank contained no sample and no enzyme).

hyaluronidase = target: T3, hyaluronidase (Bos taurus, UniProt Q2YDK3); assay: Test for hyaluronidase-inhibiting activity (commercial hyaluronidase activated with compound 48/80); assay type: biochemical; conditions: FIG. 16
T3 construct: purchased
T3 sequence (Q2YDK3 36-553): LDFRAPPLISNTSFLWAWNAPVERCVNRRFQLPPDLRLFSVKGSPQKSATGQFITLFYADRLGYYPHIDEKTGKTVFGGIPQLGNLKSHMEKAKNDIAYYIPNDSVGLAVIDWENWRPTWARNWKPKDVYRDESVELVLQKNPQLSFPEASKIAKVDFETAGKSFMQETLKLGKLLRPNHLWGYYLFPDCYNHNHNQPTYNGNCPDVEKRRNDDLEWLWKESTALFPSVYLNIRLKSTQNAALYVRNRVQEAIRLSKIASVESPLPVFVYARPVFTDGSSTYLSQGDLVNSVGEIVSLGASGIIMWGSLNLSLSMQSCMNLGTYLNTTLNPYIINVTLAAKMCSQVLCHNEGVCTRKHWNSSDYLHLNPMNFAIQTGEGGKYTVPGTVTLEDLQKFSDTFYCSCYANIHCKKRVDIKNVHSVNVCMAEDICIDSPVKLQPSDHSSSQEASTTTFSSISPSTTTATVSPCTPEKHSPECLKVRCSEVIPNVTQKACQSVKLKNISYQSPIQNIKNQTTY
Experimental: That is, a sample solution was added to a commercial hyaluronidase solution, and preincubation was conducted. […] Then, a hyaluronic acid solution was added as a substrate, and a reaction was allowed to take place.
The N-acetylglucosamine produced by the above reaction was subjected to the Elson-Morgan's procedure to develop a color. […] Hyaluronidase-inhibiting activity (%) was calculated using the following formula:
(%)={(C-CB)-(S-SB)}.div.(C-CB)×100
wherein S: absorbance of test solution,
C: absorbance of control wherein a buffer solution is used in place of the sample,
SB : absorbance of blank for S (the blank contained no enzyme), and
CB : absorbance of blank for C (the blank contained no sample and no enzyme).

T2 sequence (P27470 39-1592): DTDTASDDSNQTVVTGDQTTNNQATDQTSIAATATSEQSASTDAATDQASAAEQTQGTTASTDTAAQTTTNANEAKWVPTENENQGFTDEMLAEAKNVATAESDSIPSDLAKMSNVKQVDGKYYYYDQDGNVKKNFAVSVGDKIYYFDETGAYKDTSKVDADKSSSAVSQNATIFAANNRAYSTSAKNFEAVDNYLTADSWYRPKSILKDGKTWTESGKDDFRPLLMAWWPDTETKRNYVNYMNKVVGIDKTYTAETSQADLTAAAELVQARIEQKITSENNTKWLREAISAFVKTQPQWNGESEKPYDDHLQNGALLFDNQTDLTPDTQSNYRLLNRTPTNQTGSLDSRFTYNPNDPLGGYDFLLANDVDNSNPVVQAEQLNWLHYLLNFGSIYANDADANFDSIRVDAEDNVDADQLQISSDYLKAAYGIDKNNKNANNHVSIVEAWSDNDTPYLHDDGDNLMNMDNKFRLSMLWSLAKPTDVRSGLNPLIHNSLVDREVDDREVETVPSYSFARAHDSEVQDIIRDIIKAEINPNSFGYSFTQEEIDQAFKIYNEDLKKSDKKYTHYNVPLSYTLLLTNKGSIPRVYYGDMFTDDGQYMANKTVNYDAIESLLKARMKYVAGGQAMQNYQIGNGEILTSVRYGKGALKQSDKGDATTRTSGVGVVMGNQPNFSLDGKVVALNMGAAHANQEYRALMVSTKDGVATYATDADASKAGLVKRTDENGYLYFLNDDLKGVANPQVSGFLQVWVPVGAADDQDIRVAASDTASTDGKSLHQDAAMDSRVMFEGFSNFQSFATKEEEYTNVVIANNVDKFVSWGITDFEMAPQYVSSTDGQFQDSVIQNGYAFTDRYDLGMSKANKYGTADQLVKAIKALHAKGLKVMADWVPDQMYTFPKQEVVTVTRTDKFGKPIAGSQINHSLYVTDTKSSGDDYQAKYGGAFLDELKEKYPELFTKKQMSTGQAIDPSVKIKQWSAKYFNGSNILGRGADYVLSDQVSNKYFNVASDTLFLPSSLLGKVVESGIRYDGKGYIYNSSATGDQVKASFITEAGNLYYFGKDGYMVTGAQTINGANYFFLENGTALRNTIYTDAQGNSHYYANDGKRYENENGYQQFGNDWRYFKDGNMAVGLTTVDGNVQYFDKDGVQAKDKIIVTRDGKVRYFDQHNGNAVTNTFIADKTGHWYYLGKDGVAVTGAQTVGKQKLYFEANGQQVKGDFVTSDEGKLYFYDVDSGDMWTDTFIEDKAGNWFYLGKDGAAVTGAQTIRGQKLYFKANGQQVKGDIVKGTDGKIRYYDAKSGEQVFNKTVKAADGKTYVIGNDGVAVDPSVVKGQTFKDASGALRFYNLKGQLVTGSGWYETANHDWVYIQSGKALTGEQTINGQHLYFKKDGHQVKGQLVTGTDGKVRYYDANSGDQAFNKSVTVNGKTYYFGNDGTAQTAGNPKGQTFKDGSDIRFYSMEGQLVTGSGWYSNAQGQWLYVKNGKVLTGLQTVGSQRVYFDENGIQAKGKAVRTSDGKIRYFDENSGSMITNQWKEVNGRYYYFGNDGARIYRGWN
T1 sequence (P12821 30-1306, species assumed): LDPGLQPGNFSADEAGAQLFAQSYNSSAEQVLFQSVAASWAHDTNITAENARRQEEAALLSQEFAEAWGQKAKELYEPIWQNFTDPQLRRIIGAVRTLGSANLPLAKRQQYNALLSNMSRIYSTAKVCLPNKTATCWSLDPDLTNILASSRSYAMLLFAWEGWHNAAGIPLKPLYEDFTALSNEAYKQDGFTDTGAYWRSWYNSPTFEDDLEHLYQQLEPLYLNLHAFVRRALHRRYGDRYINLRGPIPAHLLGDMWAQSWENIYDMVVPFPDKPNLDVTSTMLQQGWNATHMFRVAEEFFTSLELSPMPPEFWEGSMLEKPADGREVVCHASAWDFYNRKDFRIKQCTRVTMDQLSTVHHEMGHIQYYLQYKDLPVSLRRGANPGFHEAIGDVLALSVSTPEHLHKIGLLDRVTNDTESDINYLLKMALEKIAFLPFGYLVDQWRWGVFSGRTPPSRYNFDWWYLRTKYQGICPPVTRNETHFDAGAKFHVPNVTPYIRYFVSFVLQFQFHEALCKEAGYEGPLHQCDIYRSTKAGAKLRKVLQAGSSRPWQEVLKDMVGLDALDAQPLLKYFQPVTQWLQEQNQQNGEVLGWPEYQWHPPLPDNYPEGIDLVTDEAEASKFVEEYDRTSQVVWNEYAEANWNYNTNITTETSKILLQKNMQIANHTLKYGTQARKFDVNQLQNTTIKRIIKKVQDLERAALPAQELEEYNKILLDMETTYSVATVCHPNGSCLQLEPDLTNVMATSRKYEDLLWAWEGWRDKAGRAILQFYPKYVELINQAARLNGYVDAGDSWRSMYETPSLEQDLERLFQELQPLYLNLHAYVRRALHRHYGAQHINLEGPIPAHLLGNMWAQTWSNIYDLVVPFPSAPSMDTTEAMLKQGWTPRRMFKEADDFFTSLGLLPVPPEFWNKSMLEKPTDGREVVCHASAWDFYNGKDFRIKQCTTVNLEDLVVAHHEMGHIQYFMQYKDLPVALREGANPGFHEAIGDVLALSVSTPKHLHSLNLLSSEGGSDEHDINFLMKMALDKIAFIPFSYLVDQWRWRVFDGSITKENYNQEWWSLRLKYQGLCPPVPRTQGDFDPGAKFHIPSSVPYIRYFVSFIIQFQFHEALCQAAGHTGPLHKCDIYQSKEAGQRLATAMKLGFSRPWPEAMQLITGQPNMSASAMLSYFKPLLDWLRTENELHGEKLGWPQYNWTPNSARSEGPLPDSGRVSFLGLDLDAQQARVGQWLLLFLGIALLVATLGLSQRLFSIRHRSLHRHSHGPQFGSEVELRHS

SMILES: Oc1cc(O)c2c(c1)O[C@H](c1ccc(O)c(O)c1)[C@@H](O)C2 [(+)-catechin]
antioxidative activity (amount of peroxylipid formed, absorbance at 500 nm) [1]: antioxidative activities equivalent to those of BHA and BHT

SMILES: O=C(O[C@@H]1Cc2c(O)cc(O)cc2O[C@@H]1c1cc(O)c(O)c(O)c1)c1cc(O)c(O)c(O)c1 [EGCg, (-)-epigallocatechin gallate]
IC50 [2]: 300 µM
amount showing 50% antimutagenic activity to Trp-P-2 ([3]; 1 μg of Trp-P-2, FIG. 13): about 51 μg
amount showing 50% antimutagenic activity to benzo[a]pyrene ([3]; 5 μg of benzo[a]pyrene, FIG. 14): about 56 μg

SMILES: O=c1c(O)c(-c2ccc(O)c(O)c2)oc2cc(O)cc(O)c12 [quercetin]
antioxidative activity (amount of peroxylipid formed, absorbance at 500 nm) [1]: antioxidative activities equivalent to those of BHA and BHT

ACE-inhibiting activity (in words) [2]: no ACE-inhibiting activity
SMILES: NCCCC(=O)O [GABA, γ-aminobutyric acid]

SMILES: O=C(O)/C=C/c1ccc(O)cc1 [p-coumaric acid]
antioxidative activity (amount of peroxylipid formed, absorbance at 500 nm) [1]: no antioxidative activity

SMILES: O=C(O[C@@H]1Cc2c(O)cc(O)cc2O[C@@H]1c1ccc(O)c(O)c1)c1cc(O)c(O)c(O)c1 [ECg, (-)-epicatechin gallate]
IC50 ([2]; pure polyphenol compounds, FIG. 9, read-out: IC50 to ACE): 2000 µM
IC50 [4]: ~452 µM

SMILES: O=C(O)/C=C/c1ccc(O)c(O)c1 [caffeic acid]
antioxidative activity (amount of peroxylipid formed, absorbance at 500 nm) [1]: antioxidative activities equivalent to those of BHA and BHT

SMILES: Oc1cc(O)c2c(c1)O[C@H](c1ccc(O)c(O)c1)[C@H](O)C2 [(-)-epicatechin]
antioxidative activity (amount of peroxylipid formed, absorbance at 500 nm) [1]: antioxidative activities equivalent to those of BHA and BHT
GTase-inhibiting activity (in words) [4]: very low GTase-inhibiting activity

SMILES: O=C(CCc1ccc(O)cc1)c1c(O)cc(O)cc1O [phloretin]
antioxidative activity (amount of peroxylipid formed, absorbance at 500 nm) [1]: no antioxidative activity

SMILES: O=C(CCc1ccc(O)cc1)c1c(O)cc(O)cc1O[C@@H]1O[C@H](CO)[C@@H](O)[C@H](O)[C@H]1O [phloridzin]
antioxidative activity (amount of peroxylipid formed, absorbance at 500 nm) [1]: no antioxidative activity
GTase-inhibiting activity (in words) [4]: very low GTase-inhibiting activity

SMILES: O=C(/C=C/c1ccc(O)c(O)c1)O[C@@H]1C[C@](O)(C(=O)O)C[C@@H](O)[C@H]1O [chlorogenic acid]
GTase-inhibiting activity (in words) [4]: very low GTase-inhibiting activity

IC50 (hyaluronidase): ~109 µM
SMILES: O=C(O)c1cc(=O)c2c(OCC(O)COc3cccc4oc(C(=O)O)cc(=O)c34)cccc2o1 [sodium cromoglicate]

SMILES: C[C@@H]1O[C@@H](OC[C@H]2O[C@@H](Oc3c(-c4ccc(O)c(O)c4)oc4cc(O)cc(O)c4c3=O)[C@H](O)[C@@H](O)[C@@H]2O)[C@H](O)[C@H](O)[C@H]1O [rutin]
antioxidative activity (amount of peroxylipid formed, absorbance at 500 nm) [1]: antioxidative activities equivalent to those of BHA and BHT
